Structures are written as SMILES. Converted amounts (≈) assume the structure as drawn. Where only a bound is given, the exact number is not on record here.

Our source for the MIC values is DBAASP.

What all share (assay): ≥ marks a high value that may be exact or a test limit, other limits are often not marked, values filed in µg/mL are converted to µM
In test [1] the test system is Staphylococcus aureus ATCC 25923.
Test [2] has as its system Batrachochytrium dendrobatidis JEL-197.
Test [3] concerns Escherichia coli ATCC 25726.
In test [4] the test system is Pseudomonas aeruginosa CUN 4158-02.
The test system of test [5] is Escherichia coli ATCC 25922.
Test [6] concerns Acinetobacter baumannii ATCC 19606.
For test [7], the system named is Bordetella bronchiseptica CUN 11844-99.
Test [8] deals with Stenotrophomonas maltophilia CUN 3998-00.
Test [9] concerns Staphylococcus aureus CUN 3792-99.
Test [10] deals with Pseudomonas aeruginosa ATCC 27853.
Test [11] deals with Staphylococcus aureus ATCC 43300.
In test [12] the test system is Candida albicans ATCC 90028.
Test [13] has as its system Staphylococcus aureus NCTC 8325.
The subject of test [14] is Enterobacter cloacae NHTCC 53001.
Test [15] relates to Klebsiella pneumoniae KK3 9904.

Take `CC[C@H](C)[C@H](NC(=O)CN)C(=O)N[C@@H](CC(C)C)C(=O)N[C@@H](CC(=O)O)C(=O)N[C@H](C(=O)N[C@@H](Cc1ccccc1)C(=O)N[C@@H](CCCCN)C(=O)NCC(=O)N[C@H](C(=O)N[C@@H](C)C(=O)N[C@@H](CCCCN)C(=O)NCC(=O)N[C@H](C(=O)N[C@@H](C)C(=O)N[C@@H](CCCCN)C(=O)N[C@@H](CC(=O)O)C(=O)N[C@@H](CC(C)C)C(=O)N[C@@H](C)C(=O)N[C@H](C(=O)N[C@@H](Cc1cnc[nH]1)C(=O)N[C@@H](CCSC)C(=O)N[C@@H](CC(C)C)C(=O)N[C@@H](CCC(=O)O)C(=O)N[C@@H](CC(N)=O)C(=O)N[C@@H](CC(C)C)C(=O)N[C@@H](CCCCN)C(=O)N[C@H]1CSSC[C@@H](C(=O)O)NC(=O)CNC(=O)[C@H]([C@@H](C)O)NC(=O)[C@H](CCSC)NC(=O)[C@H](CCCCN)NC1=O)C(C)C)C(C)C)C(C)C)[C@@H](C)O` [GILDTFKGVAKGVAKDLAVHMLENLKCKMTGC]: the MIC in test [1] was 100 µM (≈ 339 µg/mL); in test [2], not below 50 µM; in [3], not below 50 µM.
For the molecule `NCCCC[C@H](NC(=O)CNC(=O)[C@H](CCCCN)NC(=O)[C@H](Cc1ccccc1)NC(=O)[C@H](CCCCN)NC(=O)[C@H](Cc1c[nH]c2ccccc12)NC(=O)[C@H](Cc1ccccc1)NC(=O)[C@H](CCCN=C(N)N)NC(=O)[C@H](CCCN=C(N)N)NC(=O)[C@H](Cc1ccc(O)cc1)NC(=O)[C@H](CCCCN)NC(=O)[C@H](CCCCN)NC(=O)CN)C(=O)N[C@@H](Cc1c[nH]c2ccccc12)C(=O)N[C@@H](Cc1ccccc1)C(=O)N[C@@H](Cc1c[nH]c2ccccc12)C(=O)N[C@@H](Cc1ccccc1)C(=O)N[C@@H](Cc1c[nH]c2ccccc12)C(=O)NCC(N)=O` [GKKYRRFWKFKGKWFWFWG], the MIC in [4] worked out at 12.1 µM (≈ 32 µg/mL); in test [5], 388 µM (≈ 1020 µg/mL); in [1], 388 µM (≈ 1020 µg/mL); in [6], 6.06 µM (≈ 16 µg/mL); in test [7], 3.03 µM (≈ 8 µg/mL); in test [8], 24.3 µM (≈ 64 µg/mL). Moreover, the results for the MIC in [9], in test [10] and in [11] were 6.06 µM (≈ 16 µg/mL), 3.03 µM (≈ 8 µg/mL) and 6.06 µM (≈ 16 µg/mL), respectively.
Consider `CC[C@H](C)[C@@H]1NC(=O)[C@H](CCCCN)NC(=O)[C@@H](NC(=O)[C@H](CCCCN)NC(=O)[C@H](C)NC(=O)[C@H](CCC(N)=O)NC(=O)[C@H](CC(=O)O)NC(=O)[C@H](CC(C)C)NC(=O)[C@H](CC(C)C)NC(=O)[C@H](CO)NC(=O)CNC(=O)CNC(=O)[C@@H](NC(=O)[C@H](CC(N)=O)NC(=O)[C@H](CCCCN)NC(=O)[C@H](Cc2ccccc2)NC(=O)[C@@H](NC(=O)[C@H](Cc2cnc[nH]2)NC(=O)[C@H](CCCCN)NC(=O)CNC(=O)[C@H](C)NC(=O)[C@@H](NC(=O)[C@H](CCCCN)NC(=O)[C@H](CC(C)C)NC(=O)[C@@H](NC(=O)CNC(=O)[C@H](CCCCN)NC(=O)[C@@H](NC(=O)[C@@H](NC(=O)[C@H](CO)NC(=O)[C@H](CCSC)NC(=O)[C@H](CC(C)C)NC(=O)CN)C(C)C)[C@@H](C)O)C(C)C)[C@@H](C)O)[C@@H](C)CC)C(C)C)CSSC[C@@H](C(=O)O)NC(=O)[C@H](CCC(N)=O)NC(=O)CNC(=O)[C@H](CO)NC1=O` [GLMSVTKGVLKTAGKHIFKNVGGSLLDQAKCKISGQC], for which the MIC in [5] is 3 µM (≈ 11.4 µg/mL); in test [12] it was not below 100 µM; in test [10], 6 µM (≈ 22.9 µg/mL); in test [13], 25 µM (≈ 95.4 µg/mL); in test [14] it was 6 µM (≈ 22.9 µg/mL); in [15] it was 12 µM (≈ 45.8 µg/mL).

As usually defined, the MIC is the least concentration at which growth counts as inhibited. A high value points to a need for much substance.
